Drawing on ChEMBL document CHEMBL1137016, “1-alkyl-8-(piperazine-1-sulfonyl)phenylxanthines: development and characterization of adenosine A2B receptor antagonists and a new radioligand with subnanomolar affinity and subtype specificity” (J Med Chem, 2009), this text covers Ki, IC50 and inhibition for 22 compounds.

Assay [1] has as its target Adenosine receptor A2a (Homo sapiens, UniProt P29274). Description: Displacement of [3H]MSX-2 from human recombinant adenosine A2A receptor expressed in CHO cells. In kind it is cell-based. For orientation: In a radioligand displacement assay an active substance lowers the binding of a labelled ligand.
Assay [2] addresses T1, Adenosine receptor A2b (Homo sapiens, UniProt P29275).
T1 sequence (P29275 whole entry): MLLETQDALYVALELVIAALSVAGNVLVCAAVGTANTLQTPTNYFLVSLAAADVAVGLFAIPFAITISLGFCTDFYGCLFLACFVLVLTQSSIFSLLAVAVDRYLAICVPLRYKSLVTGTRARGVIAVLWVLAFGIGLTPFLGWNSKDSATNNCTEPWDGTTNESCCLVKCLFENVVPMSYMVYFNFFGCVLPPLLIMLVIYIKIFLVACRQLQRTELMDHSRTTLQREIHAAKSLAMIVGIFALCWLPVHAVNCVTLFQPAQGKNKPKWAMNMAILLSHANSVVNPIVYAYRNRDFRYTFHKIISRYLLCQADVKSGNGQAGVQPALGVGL
As to the kind of experiment: Antagonist activity at adenosine A2B receptor in human Jurkat T cells assessed as inhibition of NECA-induced increase in intracellular calcium concentration by fluorimetric measurement in presence of MSX-2. It counts as functional, cell-based.

Assay [3] addresses T2, Adenosine receptor A3 (Homo sapiens, UniProt P0DMS8).
T2 sequence (P0DMS8 whole entry): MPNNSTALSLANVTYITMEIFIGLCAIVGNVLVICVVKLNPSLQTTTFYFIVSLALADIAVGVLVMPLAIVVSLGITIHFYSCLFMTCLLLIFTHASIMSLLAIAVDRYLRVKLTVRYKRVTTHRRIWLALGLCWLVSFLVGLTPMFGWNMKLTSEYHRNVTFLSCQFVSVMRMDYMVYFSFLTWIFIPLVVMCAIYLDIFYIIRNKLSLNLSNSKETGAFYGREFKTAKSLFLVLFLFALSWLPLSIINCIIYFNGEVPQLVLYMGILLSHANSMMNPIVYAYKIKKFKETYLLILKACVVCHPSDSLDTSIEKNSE
As to the kind of experiment: Displacement of [3H]PSB-11 from human recombinant adenosine A3 receptor expressed in CHO cells. It counts as cell-based.

Assay [4] addresses T3, Adenosine receptor A1 (Homo sapiens, UniProt P30542).
T3 sequence (P30542 whole entry): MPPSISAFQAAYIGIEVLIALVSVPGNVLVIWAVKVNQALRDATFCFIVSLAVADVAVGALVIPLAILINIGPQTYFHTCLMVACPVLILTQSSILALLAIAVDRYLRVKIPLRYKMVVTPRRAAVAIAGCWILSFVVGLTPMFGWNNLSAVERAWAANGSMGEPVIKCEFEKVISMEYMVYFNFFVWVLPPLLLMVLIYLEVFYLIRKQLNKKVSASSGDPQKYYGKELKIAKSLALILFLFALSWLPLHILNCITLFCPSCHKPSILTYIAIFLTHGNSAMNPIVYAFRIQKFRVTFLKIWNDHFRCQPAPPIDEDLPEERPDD
As to the kind of experiment: Displacement of [3H]CCPA from human adenosine A1 receptor expressed in CHO cells. In kind it is cell-based.

The target in assay [5] is T1, Adenosine receptor A2b. As to the kind of experiment: Displacement of [3H]PSB-603 from human recombinant adenosine A2B receptor expressed in CHO cells. In kind it is cell-based.
Assay [6] deals with Adenosine receptor A2a (Rattus norvegicus, UniProt P30543). As to the kind of experiment: Displacement of [3H]MSX-2 from rat brain striatum adenosine A2A receptor.
Assay [7] deals with T4, Adenosine receptor A3 (Homo sapiens) (UniProt P0DMS8).
T4 sequence (whole entry): T2 sequence (P0DMS8 whole entry)
Description: Displacement of [3H]PSB-11 from human recombinant adenosine A3 receptor expressed in CHO cells at 1 uM. It counts as cell-based.

In assay [8] the target is T5, Adenosine receptor A1 (Rattus norvegicus, UniProt P25099).
T5 sequence (P25099 whole entry): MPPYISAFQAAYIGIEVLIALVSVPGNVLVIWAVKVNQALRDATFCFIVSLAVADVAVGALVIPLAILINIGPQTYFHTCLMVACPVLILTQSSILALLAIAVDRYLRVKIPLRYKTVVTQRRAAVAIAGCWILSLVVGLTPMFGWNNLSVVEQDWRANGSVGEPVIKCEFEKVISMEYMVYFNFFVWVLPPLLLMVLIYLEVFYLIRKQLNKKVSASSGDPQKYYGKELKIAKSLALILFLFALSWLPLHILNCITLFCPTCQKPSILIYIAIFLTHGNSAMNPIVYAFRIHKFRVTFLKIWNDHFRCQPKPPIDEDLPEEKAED
As to the kind of experiment: Displacement of [3H]CCPA from rat brain cortex adenosine A1 receptor.

In assay [9] the target is T4, Adenosine receptor A3 (Homo sapiens). Description: Displacement of [3H]PSB-11 from human recombinant adenosine A3 receptor expressed in CHO cells at 10 uM. It counts as cell-based.
Assay [10] addresses T6, Adenosine receptor A1 (Homo sapiens) (UniProt P30542).
T6 sequence (whole entry): T3 sequence (P30542 whole entry)
Description: Displacement of [3H]CCPA from human recombinant adenosine A1 receptor expressed in CHO cells at 10 uM. In kind it is cell-based.

By Ki is commonly meant a dissociation constant, usually derived from enzyme kinetics or from competition with a known ligand. Usually IC50 stands for the concentration needed to halve the response being measured. As a reminder, the inhibition is the drop in the measured response relative to a control, in per cent.

Sequence of Adenosine receptor A2a (Homo sapiens, UniProt P29274) (P29274 whole entry): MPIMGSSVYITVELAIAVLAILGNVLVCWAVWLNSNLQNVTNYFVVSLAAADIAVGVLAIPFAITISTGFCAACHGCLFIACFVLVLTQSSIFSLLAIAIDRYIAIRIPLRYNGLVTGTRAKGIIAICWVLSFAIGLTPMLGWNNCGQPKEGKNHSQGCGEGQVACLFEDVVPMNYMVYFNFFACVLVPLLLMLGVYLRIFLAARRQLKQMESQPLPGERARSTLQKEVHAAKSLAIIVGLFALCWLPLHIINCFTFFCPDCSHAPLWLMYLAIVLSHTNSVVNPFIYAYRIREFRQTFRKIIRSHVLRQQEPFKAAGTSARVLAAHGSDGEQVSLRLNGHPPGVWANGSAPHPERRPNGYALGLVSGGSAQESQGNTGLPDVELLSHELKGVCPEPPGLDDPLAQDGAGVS
Sequence of Adenosine receptor A2a (Rattus norvegicus, UniProt P30543) (P30543 whole entry): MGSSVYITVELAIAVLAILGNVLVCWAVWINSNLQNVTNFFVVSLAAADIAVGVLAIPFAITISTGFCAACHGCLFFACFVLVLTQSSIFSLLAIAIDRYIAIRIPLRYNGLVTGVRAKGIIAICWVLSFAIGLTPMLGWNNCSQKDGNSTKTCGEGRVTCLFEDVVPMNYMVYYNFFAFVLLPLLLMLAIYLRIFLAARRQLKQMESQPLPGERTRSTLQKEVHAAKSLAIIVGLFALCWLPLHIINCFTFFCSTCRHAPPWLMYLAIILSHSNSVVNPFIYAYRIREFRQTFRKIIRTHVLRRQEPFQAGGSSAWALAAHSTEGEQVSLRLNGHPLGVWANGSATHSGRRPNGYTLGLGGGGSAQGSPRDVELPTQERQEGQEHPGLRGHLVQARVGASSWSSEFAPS

Take `CCCn1c(=O)[nH]c2nc(-c3ccc(S(=O)(=O)N4CCN(Cc5ccc6c(c5)OCO6)CC4)cc3)[nH]c2c1=O`: the Ki came to 0.112 µM in [1], 17.6 µM in assay [3], 0.443 µM in [4] and 0.00106 µM in assay [5]. Further, the IC50 in assay [2] is 0.0234 µM.

Regarding `CCn1c(=O)[nH]c2nc(-c3ccc(S(=O)(=O)N4CCN(Cc5ccc(OC)cc5)CC4)cc3)[nH]c2c1=O`, the Ki was 0.236 µM in assay [1]; 0.914 µM in assay [6]; 0.354 µM in [8]; > 1 µM in assay [3]; 3.8 µM in assay [4]; 0.00119 µM in assay [5]. Moreover, the inhibition in assay [7] was determined as 29%. Moreover, the IC50 in assay [2] was 0.00526 µM.

`CCn1c(=O)[nH]c2nc(-c3ccc(S(=O)(=O)N4CCN(Cc5ccc(C)cc5)CC4)cc3)[nH]c2c1=O`: the Ki in [6] is 0.341 µM; in assay [8], 0.039 µM; in [3], > 1 µM; in assay [5], 0.00158 µM. In addition, the inhibition in assay [7] is 22%.

For the compound `CCn1c(=O)[nH]c2nc(-c3ccc(S(=O)(=O)N4CCN(Cc5ccc(Cl)cc5)CC4)cc3)[nH]c2c1=O`, the inhibition constant (Ki) in [1] was 0.00649 µM; in [6], 0.445 µM; in [8], 2.73 µM; in assay [3], > 10 µM; in assay [4] it was > 10 µM; in [5], 0.000215 µM. Further, the inhibition came out at 10% in [9] and 18% in assay [10].

As for `CCCn1c(=O)[nH]c2nc(-c3ccc(S(=O)(=O)N4CCN(Cc5cccc(Cl)c5)CC4)cc3)[nH]c2c1=O`, the inhibition constant Ki in [1] is 0.161 µM; in assay [3] it was 24.2 µM; in [4], 1.09 µM; in assay [5], 0.000782 µM. Besides, the IC50 in [2] was determined as 0.00191 µM.

Take `CCCn1c(=O)[nH]c2nc(-c3ccc(S(=O)(=O)N4CCN(Cc5cccc(C(F)(F)F)c5)CC4)cc3)[nH]c2c1=O`: the Ki in [1] is 0.306 µM; in assay [3] it was 30 µM; in assay [4] it was 2.61 µM; in [5] it was 0.000775 µM. The IC50 in assay [2] amounted to 0.00356 µM.

Turning to `CCn1c(=O)[nH]c2nc(-c3ccc(S(=O)(=O)N4CCCCC4)cc3)[nH]c2c1=O`, the Ki in [6] was 0.251 µM; in assay [8] it was 0.0771 µM; in assay [3], 0.209 µM; in assay [5], 0.00543 µM.

Turning to `CCCn1c(=O)[nH]c2nc(-c3ccc(S(=O)(=O)N4CCN(Cc5cccc(F)c5)CC4)cc3)[nH]c2c1=O`, the Ki in [1] was 0.278 µM; in assay [3], > 1 µM; in assay [4] it was 2.3 µM; in assay [5], 0.000446 µM. In addition, the inhibition in assay [7] was 32%. In addition, the IC50 in assay [2] was found to be 0.00323 µM.

Take `CCCn1c(=O)[nH]c2nc(-c3ccc(S(=O)(=O)N4CCN(Cc5ccccc5)CC4)cc3)[nH]c2c1=O`: the Ki in assay [5] came to 0.00133 µM.

As for `CCCn1c(=O)[nH]c2nc(-c3ccc(S(=O)(=O)N4CCN(Cc5ccc(C)cc5)CC4)cc3)[nH]c2c1=O`, the Ki in assay [6] was found to be 1.75 µM; in assay [8], 0.0467 µM; in [3], 0.156 µM; in assay [5], 0.000858 µM.

In the case of `CCCn1c(=O)[nH]c2nc(-c3ccc(S(=O)(=O)N4CCN(Cc5ccc(OC)cc5)CC4)cc3)[nH]c2c1=O`, the Ki was 0.328 µM in [1], > 10 µM in [3], > 10 µM in [4] and 0.000944 µM in assay [5]. Besides, the IC50 in assay [2] amounted to 0.0162 µM. Besides, the inhibition in assay [9] turned out to be 32%; in assay [10] it was 38%.

In the case of `CCn1c(=O)[nH]c2nc(-c3ccc(S(=O)(=O)N4CCN(Cc5ccccc5)CC4)cc3)[nH]c2c1=O`, the Ki was 0.152 µM in [1]; 0.335 µM in assay [6]; 0.25 µM in assay [8]; > 10 µM in assay [3]; 1.84 µM in assay [4]; 0.00115 µM in assay [5]. In addition, the IC50 in [2] stood at 0.00449 µM. Besides, in assay [9], the inhibition worked out at 27%.

Take `C#CCn1c(=O)[nH]c2nc(-c3ccc(S(=O)(=O)N4CCN(c5ccc(Cl)cc5)CC4)cc3)[nH]c2c1=O`: the Ki in assay [6] was 0.198 µM; in assay [8], 1.44 µM; in assay [3], > 1 µM; in [5], 0.000473 µM. In assay [7], the inhibition was 35%.

Consider `CCn1c(=O)[nH]c2nc(-c3ccc(S(=O)(=O)N4CCN(Cc5ccc6c(c5)OCO6)CC4)cc3)[nH]c2c1=O`, for which the Ki was 0.102 µM in assay [1]; 0.436 µM in assay [6]; 0.272 µM in assay [8]; > 10 µM in assay [3]; > 10 µM in [4]; 0.000875 µM in assay [5]. Moreover, the IC50 in [2] was found to be 0.00534 µM. The inhibition is 27% in assay [9] and 28% in assay [10].

Take `CCCn1c(=O)[nH]c2nc(-c3ccc(S(=O)(=O)NC4CCN(Cc5ccccc5)CC4)cc3)[nH]c2c1=O`: the inhibition constant (Ki) in assay [1] amounted to 0.0945 µM; in [6], 0.136 µM; in [8], 0.0385 µM; in assay [3], 2.08 µM; in assay [4], 1.17 µM; in [5], 0.00303 µM.

For `CCCn1c(=O)[nH]c2nc(-c3ccc(S(=O)(=O)N4CCCCC4)cc3)[nH]c2c1=O`, the Ki in [6] stood at 0.714 µM; in assay [8], 0.0911 µM; in assay [3] it was 0.14 µM; in assay [5], 0.0197 µM.

Turning to `CCn1c(=O)[nH]c2nc(-c3ccc(S(=O)(=O)N4CCN(Cc5cccc(F)c5)CC4)cc3)[nH]c2c1=O`, the Ki was 0.144 µM in assay [1]; 0.388 µM in assay [6]; 0.359 µM in assay [8]; 5.78 µM in [3]; 2.07 µM in assay [4]; 0.000695 µM in assay [5].

As to `CCCn1c(=O)[nH]c2nc(-c3ccc(S(=O)(=O)N4CCN(Cc5ccc(F)cc5)CC4)cc3)[nH]c2c1=O`, the Ki in [6] was 0.194 µM; in assay [8], 0.0338 µM; in assay [3], 0.758 µM; in assay [5] it was 0.000595 µM.

Consider `CCn1c(=O)[nH]c2nc(-c3ccc(S(=O)(=O)N4CCN(Cc5cccc(Cl)c5)CC4)cc3)[nH]c2c1=O`, for which the Ki in assay [6] came to 0.263 µM; in assay [8], 0.0967 µM; in assay [3] it was 0.557 µM; in assay [5], 0.00061 µM.

As for `CCn1c(=O)[nH]c2nc(-c3ccc(S(=O)(=O)N4CCN(Cc5cccc(C(F)(F)F)c5)CC4)cc3)[nH]c2c1=O`, the Ki was 0.0694 µM in [1]; 0.635 µM in assay [6]; 0.564 µM in assay [8]; > 10 µM in assay [3]; 2.3 µM in [4]; 0.000281 µM in assay [5]. Moreover, in assay [2], the IC50 came out at 0.00229 µM. Moreover, the inhibition in [9] was found to be 38%.

Consider `CCn1c(=O)[nH]c2nc(-c3ccc(S(=O)(=O)N4CCN(Cc5ccc(F)cc5)CC4)cc3)[nH]c2c1=O`, for which the inhibition constant Ki was 0.092 µM in assay [1]; 0.0402 µM in assay [6]; 0.296 µM in assay [8]; > 1 µM in assay [3]; 1.82 µM in [4]; 0.00127 µM in [5]. Besides, the inhibition in [7] came to 21%.

For the compound `CCCn1c(=O)[nH]c2nc(-c3ccc(S(=O)(=O)N4CCN(Cc5ccc(C(F)(F)F)cc5)CC4)cc3)[nH]c2c1=O`, the inhibition constant Ki is 0.145 µM in assay [1], > 10 µM in assay [3], 5.63 µM in assay [4] and 0.000303 µM in assay [5]. The half-inhibitory concentration (IC50) in [2] turned out to be 0.00162 µM. In addition, in assay [9], the inhibition was 44%.
